The values that follow come from patent publication US20260078120A1, “SUBSTITUTED PYRIDOPYRIMIDINONES” (MIRATI THERAPEUTICS, INC., priority 2022, published 2026).

Type in all cases: cell-based
Test [1] concerns T47D (PI3Kα H1047R mutant) cells. The test is described as follows: Inhibition of pAKT formation, alphaLISA SureFire Ultra AKT 1/2/3 (pS473), T47D cells. The conditions noted are these: Homo sapiens, T47D. The protocol: The ability of a compound of Formula (I) to inhibit the formation of pAKT was measured using alphaLISA Surefire Ultra AKT 1/2/3 (pS473) Assay Kit (#ALSU-PAKT-B50K) was obtained from Perkin Elmer (Waltham, MA).
To prepare assay plates for pAKT alphaLISA assays, cells were trypsinized, resuspended in fresh media, and viable cells were counted utilizing trypan blue exclusion. Prior to seeding, cells were washed with PBS and resuspended in HBSS (Gibco, #14025092). T47D (12,000/w), SKBR3(12,000/w), or MKN1(24,000/w) cells were seeded at 12 μl per well in a solid white flat bottom 384 cell culture plate (Perkin Elmer #6007680).
Immediately after seeding, cells were dosed using an Echo Liquid Handler (Beckman Coulter) with compounds at a […] starting concentration and serially diluted (1:4) for a total of 10 concentrations. […] Cells were incubated with the compounds (solubilized in DMSO) for approximately one hour or 24 hours at 37° C. After one hour (or 24 hours) of treatment, cells were lysed with 3 μl of the 5× lysis buffer (provided and incubated at room temperature for 15 min on a microtiter plate shaker). Once cells were sufficiently lysed, 7.5 μl of the acceptor bead mix (made using the manufacturers recommended dilutions) was added to each well and left on the microtiter plate shaker for 1 min prior to incubating plates at room temperature for one hour, in the absence of light. After one hour of incubation with the acceptor bead mix, 7.5 μl of the donor bead mix (made using the manufacturers recommended dilutions) was added to each well and left on the microtiter plate shaker for 1 min prior to incubating plates at room temperature overnight in the absence of light. Plates were then imaged the following day using a CLARIOstar microplate reader (BMG Labtech, Germany).
Percent of control values were calculated by subtracting the average signal from the positive control (alpelisib) treated wells from all treated wells (including DMSO control wells) and then divided by the average signal from the vehicle DMSO treated control wells. Percent of vehicle control values were plotted as log (inhibitor) vs. response-Variable slope (four parameters) for curve fitting and IC50 values were determined using XLfit.
Key: N.D. =not determined
Inhibition of pAKT in T47D (PI3Kα H1047R mutant) cells by Exemplary Compounds of Formula (I)
On the technique in general: Bead proximity is the source of the signal in Alpha formats.

For test [2] the test system is unchanged. The test can be described thus: CellTiter-Glo 2.0 luminescent cell viability assay, 72 hours, T47D cells. In outline: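 Viability was measured by CellTiter-Glo 2.0 luminescence after approximately 72 h of compound exposure at 37° C. Plating was 1000 cells per well the day before dosing, with ten 1:4 dilutions from a 10 µM top concentration. Values as percent of vehicle were fitted by variable-slope log(inhibitor) regression to give IC50.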
(In general: Cellular ATP, detected with luciferase, serves as a proxy for viable cell number.)

Test [3] relates to SKBR3 (PI3Kα wild type) cells. The test can be described thus: CellTiter-Glo 2.0 luminescent cell viability assay, 72 hours, SKBR3 cells. A digest of the protocol:
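Viability measured via CTG luminescence following roughly 72 hours of compound exposure at 37° C. Dosing used a 10 um starting concentration diluted 1:4 over 10 points; percent-of-vehicle data fitted with a variable-slope four-parameter model for IC50.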

[4] abbreviates: T47D (PI3Kα H1047R mutant) cells, inhibition of pAKT (pS473) formation, approximately one hour or 24 hours treatment, read-out: T47D pAKT (H1047R mutant) IC50.
The mark [5] stands for this setting: Homo sapiens, T47D, 72 h, T47D (PI3Kα H1047R mutant) cells, CellTiter-Glo, approximately 72 hours, read-out: T47D (H1047R mutant) Viability IC50.
Setting [6] is: Homo sapiens, SK-BR-3, 72 h, SKBR3 (PI3Kα wild type) cells, CellTiter-Glo, approximately 72 hours, read-out: SKBR3 (WT) Viability IC50.
The mark [7] stands for this setting: T47D (PI3Kα H1047R mutant) cells, CellTiter-Glo, approximately 72 hours, read-out: T47D (H1047R mutant) Viability IC50.
[8] abbreviates: SKBR3 (PI3Kα wild type) cells, CellTiter-Glo, approximately 72 hours, read-out: SKBR3 (WT) Viability IC50.

Read-outs that look alike come from different tables or passages of the source.

In general, IC50 refers to the concentration that gives 50% inhibition.

On to `Cc1cc([C@@H](C)Nc2ccccc2C(=O)O)c2nc(N3CC[C@@H]3CF)c(C#N)c(=O)n2c1` (single isomer, unassigned) [Example 10-53], for which the 50% inhibitory concentration (IC50) in test [1] (setting [4]) is 4.35 nM; in test [2] (setting [5]), 77.2 nM; in test [3] (setting [6]), above 10000 nM.
The matching figures for `Cc1cc([C@@H](C)Nc2ccccc2C(=O)O)c2nc(N3CC[C@H]3CF)c(C#N)c(=O)n2c1` (single isomer, unassigned) [Example 10-54]: 3.36 nM, 72.2 nM and above 10000 nM.
In the same order, the values of `Cc1cc([C@@H](C)Nc2ccccc2C(=O)O)c2nc(N3CC[C@@H]3C)c(C#N)c(=O)n2c1` (single isomer, unassigned) [Example 10-95] are 1.38 nM, 111 nM and above 10000 nM.
The matching figures for `Cc1cc([C@@H](C)Nc2ccccc2C(=O)O)c2nc(N3CC[C@H]3C)c(C#N)c(=O)n2c1` (single isomer, unassigned) [Example 10-96]: 0.905 nM, 84.4 nM and above 10000 nM.
With `Cc1cc([C@@H](C)Nc2ccccc2C(=O)O)c2nc(N3CCN(c4ccc(C#N)cc4)CC3)c(C)c(=O)n2c1` [Example 10-1, (R)-2-((1-(2-(4-(4-cyanophenyl)piperazin-1-yl)-3.7-dimethyl-4-oxo-4H-pyrido[1,2-a]pyrimidin-9-yl)ethyl)amino)benzoic acid], the half-maximal inhibitory concentration (IC50) was found to be 2.27 nM in test [1] (setting [4]), 38.5 nM in test [2] (setting [5]) and 9890 nM in test [3] (setting [6]).
The matching figures for `Cc1cc([C@@H](C)Nc2ccc(C)nc2C(=O)O)c2nc(N3Cc4ccccc4C3)c(C#N)c(=O)n2c1` [Example 10-5, (R)-3-((1-(3-cyano-2-(isoindolin-2-yl)-7-methyl-4-oxo-4H-pyrido[1,2-a]pyrimidin-9-yl)ethyl)amino)-6-methylpicolinic acid]: 0.425 nM, 13.6 nM and 2190 nM.
Take `CCc1cc([C@@H](C)Nc2ccccc2C(=O)O)c2nc(N3Cc4ccccc4C3)c(C#N)c(=O)n2c1` [Example 10-10, (R)-2-((1-(3-cyano-7-ethyl-2-(isoindolin-2-yl)-4-oxo-4H-pyrido[1,2-a]pyrimidin-9-yl)ethyl)amino)benzoic acid]: the IC50 in test [1] (setting [4]) turned out to be 1.21 nM; in test [2] (setting [7]) it was 29.3 nM; in test [3] (setting [8]), 7450 nM.
`C[C@@H](Nc1ccccc1C(=O)O)c1cc(Cl)cn2c(=O)c(C#N)c(N3Cc4ccccc4C3)nc12` [Example 10-11, (R)-2-((1-(7-chloro-3-cyano-2-(isoindolin-2-yl)-4-oxo-4H-pyrido[1,2-a]pyrimidin-9-yl)ethyl)amino)benzoic acid]: the IC50 was 1.71 nM in test [1] (setting [4]), 30.5 nM in test [2] (setting [5]) and 7770 nM in test [3] (setting [6]).
The matching figures for `Cc1cc([C@@H](C)Nc2ccccc2C(=O)O)c2nc(N3CCC(F)(F)CC3)c(Br)c(=O)n2c1` [Example 10-12, (R)-2-((1-(3-bromo-2-(4,4-difluoropiperidin-1-yl)-7-methyl-4-oxo-4H-pyrido[1,2-a]pyrimidin-9-yl)ethyl)amino)benzoic acid]: 0.639 nM, 31 nM and above 10000 nM.
In the same order, the values of `Cc1cc([C@@H](C)Nc2ccccc2C(=O)O)c2nc(N3CCN(c4cn(C)nc4C(F)(F)F)CC3)c(C)c(=O)n2c1` [Example 10-13, (R)-2-((1-(3,7-dimethyl-2-(4-(1-methyl-3-(trifluoromethyl)-1H-pyrazol-4-yl)piperazin-1-yl)-4-oxo-4H-pyrido[1,2-a]pyrimidin-9-yl)ethyl)amino)benzoic acid] are 1 nM, 32.8 nM and 5890 nM.
In the same order, the values of `Cc1cc([C@@H](C)Nc2ccc(Cl)nc2C(=O)O)c2nc(N3Cc4ccccc4C3)c(C#N)c(=O)n2c1` [Example 10-14, (R)-6-chloro-3-((1-(3-cyano-2-(isoindolin-2-yl)-7-methyl-4-oxo-4H-pyrido[1,2-a]pyrimidin-9-yl)ethyl)amino)picolinic acid] are 2.34 nM, 33.1 nM and 8790 nM.
As to `Cc1cc([C@@H](C)Nc2ccccc2C(=O)O)c2nc(NCC3CC3)c(C#N)c(=O)n2c1` [Example 10-15, (R)-2-((1-(3-cyano-2-((cyclopropylmethyl)amino)-7-methyl-4-oxo-4H-pyrido[1,2-a]pyrimidin-9-yl)ethyl)amino)benzoic acid], the figures for the IC50 in test [1] (setting [4]), in test [2] (setting [5]) and in test [3] (setting [6]) were 0.853 nM, 36.4 nM and above 10000 nM, respectively.
Consider `Cc1cc([C@@H](C)Nc2ccccc2C(=O)O)c2nc(N3CCCC(F)(F)C3)c(C)c(=O)n2c1` [Example 10-18, (R)-2-((1-(2-(3,3-difluoropiperidin-1-yl)-3,7-dimethyl-4-oxo-4H-pyrido[1,2-a]pyrimidin-9-yl)ethyl)amino)benzoic acid], for which the IC50 in test [1] (setting [4]) was 2.01 nM; in test [2] (setting [5]), 38.4 nM; in test [3] (setting [6]), above 10000 nM.
On to `Cc1cc([C@@H](C)Nc2ccccc2C(=O)O)c2nc(N3CCN(c4ccc(C#N)c5cnccc45)CC3)c(C)c(=O)n2c1` [Example 10-19, (R)-2-((1-(2-(4-(8-cyanoisoquinolin-5-yl)piperazin-1-yl)-3,7-dimethyl-4-oxo-4H-pyrido[1,2-a]pyrimidin-9-yl)ethyl)amino)benzoic acid], for which the IC50 in test [1] (read-out: T47D pAKT (H1047R mutant) IC50 (nM)) was 0.244 nM; in test [2] (Homo sapiens, T47D, 72 h, read-out: T47D (H1047R mutant) Viability IC50 (nM)), 41.4 nM; in test [3] (Homo sapiens, SK-BR-3, 72 h, read-out: SKBR3 (WT) Viability IC50 (nM)), 7640 nM.
Turning to `Cc1cc([C@@H](C)Nc2ccccc2C(=O)O)c2nc(N3CCN(c4ccc(C#N)cc4)CC3C)c(C)c(=O)n2c1` (stereo partly drawn) [Example 10-20, 2-(((1R)-1-(2-(4-(4-cyanophenyl)-2-methylpiperazin-1-yl)-3,7-dimethyl-4-oxo-4H-pyrido[1,2-a]pyrimidin-9-yl)ethyl)amino)benzoic acid], the IC50 in test [1] (setting [4]) was 1.6 nM; in test [2] (setting [7]), 42.7 nM; in test [3] (setting [8]), 7450 nM.
In the case of `Cc1cc([C@@H](C)Nc2ccccc2C(=O)O)c2nc(N3CCN(c4ccc(C#N)cc4)[C@@H](C)C3)c(C)c(=O)n2c1` [Example 10-21, 2-(((R)-1-(2-((S)-4-(4-cyanophenyl)-3-methylpiperazin-1-yl)-3,7-dimethyl-4-oxo-4H-pyrido[1,2-a]pyrimidin-9-yl)ethyl)amino)benzoic acid], the IC50 in test [1] (setting [4]) is 2.34 nM; in test [2] (setting [5]) it was 45.8 nM; in test [3] (setting [6]), 8070 nM.
The matching figures for `Cc1cc([C@@H](C)Nc2ccccc2C(=O)O)c2nc(N3CCN(c4ccc(C#N)cc4)C[C@H]3C)c(C)c(=O)n2c1` [Example 10-22, 2-(((R)-1-(2-((R)-4-(4-cyanophenyl)-2-methylpiperazin-1-yl)-3,7-dimethyl-4-oxo-4H-pyrido[1,2-a]pyrimidin-9-yl)ethyl)amino)benzoic acid]: 3.85 nM, 48 nM and 5540 nM.
The matching figures for `Cc1cc([C@@H](C)Nc2ccccc2C(=O)O)c2nc(N3CCN(c4ccc(C#N)cc4)[C@H](C)C3)c(C)c(=O)n2c1` [Example 10-24, 2-(((R)-1-(2-((R)-4-(4-cyanophenyl)-3-methylpiperazin-1-yl)-3,7-dimethyl-4-oxo-4H-pyrido[1,2-a]pyrimidin-9-yl)ethyl)amino)benzoic acid]: 5.49 nM, 48.6 nM and above 10000 nM.
